# Laboratory results taken from US12077503B2, “Substituted cyclic amides and their use as herbicides” (FMC CORPORATION, priority 2015, dated 2024).
# Legend:
# Format in all cases: in vivo
# [1] = system: barnyardgrass (Echinochloa crus-galli); assay: Test C preemergence; conditions: for Plant response rating (scale of 0 to 100), Barnyardgrass: 31 g ai/ha, 0 is no effect, 100 is complete control; for Plant response rating, Barnyardgrass: scale 0 to 100, 0 no effect, 100 complete control
# In short: (§1)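 After treatment with surfactant-containing formulations, either preemergence to seeds in loam-sand soil or postemergence to potted seedlings at 2–18 cm, plants were kept 13–15 d in a greenhouse. Observers then compared them with controls and assigned ratings, 0 signifying no effect and 100 complete control.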
# [2] = system: crabgrass, large (large crabgrass, Digitaria sanguinalis); assay: Test C preemergence; conditions: for Plant response rating (scale of 0 to 100), Crabgrass, Large: 31 g ai/ha, 0 is no effect, 100 is complete control; for Plant response rating, Crabgrass, Large: scale 0 to 100, 0 no effect, 100 complete control
# In short: as §1
# [3] = system: foxtail, giant (giant foxtail, Setaria faberii); assay: Test C preemergence; conditions: for Plant response rating (scale of 0 to 100), Foxtail, Giant: 31 g ai/ha, 0 is no effect, 100 is complete control; for Plant response rating, Foxtail, Giant: scale 0 to 100, 0 no effect, 100 complete control
# In short: as §1
# [4] = system: morningglory (Ipomoea coccinea); assay: Test C preemergence; conditions: for Plant response rating (scale of 0 to 100), Morningglory: 31 g ai/ha, 0 is no effect, 100 is complete control; for Plant response rating, Morningglory: scale 0 to 100, 0 no effect, 100 complete control
# In short: as §1
# [5] = system: nutsedge, yellow (yellow nutsedge, Cyperus esculentus); assay: Test C preemergence; conditions: for Plant response rating (scale of 0 to 100), Nutsedge, Yellow: 31 g ai/ha, 0 is no effect, 100 is complete control; for Plant response rating, Nutsedge, Yellow: scale 0 to 100, 0 no effect, 100 complete control
# In short: as §1
# [6] = system: oilseed rape (Brassica napus); assay: Test C preemergence; conditions: for Plant response rating (scale of 0 to 100), Oilseed Rape: 31 g ai/ha, 0 is no effect, 100 is complete control; for Plant response rating, Oilseed Rape: scale 0 to 100, 0 no effect, 100 complete control
# In short: as §1
# [7] = system: pigweed (Amaranthus retroflexus); assay: Test C preemergence; conditions: for Plant response rating (scale of 0 to 100), Pigweed: 31 g ai/ha, 0 is no effect, 100 is complete control; for Plant response rating, Pigweed: scale 0 to 100, 0 no effect, 100 complete control
# In short: as §1
# [8] = system: velvetleaf (Abutilon theophrasti); assay: Test C preemergence; conditions: for Plant response rating (scale of 0 to 100), Velvetleaf: 31 g ai/ha, 0 is no effect, 100 is complete control; for Plant response rating, Velvetleaf: scale 0 to 100, 0 no effect, 100 complete control
# In short: as §1
# [9] = system: wheat (winter wheat, Triticum aestivum); assay: Test C preemergence; conditions: for Plant response rating (scale of 0 to 100), Wheat: 31 g ai/ha, 0 is no effect, 100 is complete control; for Plant response rating, Wheat: scale 0 to 100, 0 no effect, 100 complete control
# In short: as §1
# [10] = system: Monochoria (Monochoria vaginalis); assay: Test F flooded paddy test; parameters: key: 0 = no effect, 100 = complete control; conditions: Flood
# Text: (§2) Plant species in the flooded paddy test consisted of one stand of 9 or 10 water seeded rice seedlings (Rice, W. S. Jap, Oryza sativa cv. ‘Japonica—M202’ or Rice, W. S. Ind, ‘Indica’), and two stands of 3 or 4 transplanted rice seedlings (Oryza sativa cv. ‘Japonica—M202’), Monochoria (Monochoria vaginalis), sedge, umbrella (small-flower umbrella sedge, Cyperus difformis), hardstem bulrush (Scirpus juncoides), redstem (purple redstem, Ammannia coccinea), rice flatsedge (Cyperus iria), bearded sprangletop (Leptochloa fascicularis), barnyardgrass (Echinochloa crus-galli), waterplantain (common waterplantain, Alisma plantago-aquatica), and late watergrass (Echinochloa oryzicola) grown to the 2 to 2.5 leaf stage for testing. Potted plants were grown in a greenhouse with day/night temperature settings of 30/27° C., and supplemental balanced lighting was provided to maintain a 16-hour photoperiod. At time of treatment, test pots were flooded to 3 cm above the soil surface, treated by application of test compounds directly to the paddy water, and then maintained at that water depth for the duration of the test. Effects of treatments on rice and weeds were visually evaluated by comparison to untreated controls after 21 d. Plant response ratings, summarized in Table F, are based on a scale of 0 to 100 where 0 is no effect and 100 is complete control. A dash (-) response means no test result.
# [11] = system: barnyardgrass (Echinochloa crus-galli); assay: Test F flooded paddy test; parameters: key: 0 = no effect, 100 = complete control; conditions: Flood
# Text: as §2
# [12] = system: bearded sprangletop (Leptochloa fascicularis); assay: Test F flooded paddy test; parameters: key: 0 = no effect, 100 = complete control; conditions: Flood
# Text: as §2
# [13] = system: late watergrass (Echinochloa oryzicola); assay: Test F flooded paddy test; parameters: key: 0 = no effect, 100 = complete control; conditions: Flood
# Text: as §2
# [14] = system: rice flatsedge (Cyperus iria); assay: Test F flooded paddy test; parameters: key: 0 = no effect, 100 = complete control; conditions: Flood
# Text: as §2
# [15] = system: sedge, umbrella (small-flower umbrella sedge, Cyperus difformis); assay: Test F flooded paddy test; parameters: key: 0 = no effect, 100 = complete control; conditions: Flood
# Text: as §2
# [16] = system: water seeded rice seedlings (Rice, W. S. Jap, Oryza sativa cv. ‘Japonica—M202’); assay: Test F flooded paddy test; parameters: key: 0 = no effect, 100 = complete control; conditions: Flood
# Text: as §2
smiles,measurement,setting,value
"CN1C[C@H](c2ccc(F)c(F)c2)[C@@H](C(=O)Nc2cccc(F)c2F)C1=O [Compound 639, (3S,4S)—N-(2,3-difluorophenyl)-4-(3,4-difluorophenyl)-1-methyl-2-oxo-3-pyrrolidinecarboxamide]","Plant response rating (scale of 0 to 100), Barnyardgrass",[1],90
same,"Plant response rating, Barnyardgrass",[1]; 62 g ai/ha,95
same,"Plant response rating, Barnyardgrass",[1]; 125 g ai/ha,95
same,"Plant response rating, Barnyardgrass",[1]; 250 g ai/ha,100
same,"Plant response rating (scale of 0 to 100), Crabgrass, Large",[2],98
same,"Plant response rating, Crabgrass, Large",[2]; 62 g ai/ha,98
same,"Plant response rating, Crabgrass, Large",[2]; 125 g ai/ha,100
same,"Plant response rating, Crabgrass, Large",[2]; 250 g ai/ha,100
same,"Plant response rating (scale of 0 to 100), Foxtail, Giant",[3],90
same,"Plant response rating, Foxtail, Giant",[3]; 62 g ai/ha,90
same,"Plant response rating, Foxtail, Giant",[3]; 125 g ai/ha,95
same,"Plant response rating, Foxtail, Giant",[3]; 250 g ai/ha,100
same,"Plant response rating (scale of 0 to 100), Morningglory",[4],20
same,"Plant response rating, Morningglory",[4]; 62 g ai/ha,10
same,"Plant response rating, Morningglory",[4]; 125 g ai/ha,35
same,"Plant response rating, Morningglory",[4]; 250 g ai/ha,40
same,"Plant response rating (scale of 0 to 100), Nutsedge, Yellow",[5],0
same,"Plant response rating, Nutsedge, Yellow",[5]; 62 g ai/ha,0
same,"Plant response rating, Nutsedge, Yellow",[5]; 125 g ai/ha,0
same,"Plant response rating, Nutsedge, Yellow",[5]; 250 g ai/ha,20
same,"Plant response rating (scale of 0 to 100), Oilseed Rape",[6],0
same,"Plant response rating, Oilseed Rape",[6]; 62 g ai/ha,60
same,"Plant response rating, Oilseed Rape",[6]; 125 g ai/ha,85
same,"Plant response rating, Oilseed Rape",[6]; 250 g ai/ha,90
same,"Plant response rating (scale of 0 to 100), Pigweed",[7],40
same,"Plant response rating, Pigweed",[7]; 62 g ai/ha,55
same,"Plant response rating, Pigweed",[7]; 125 g ai/ha,65
same,"Plant response rating, Pigweed",[7]; 250 g ai/ha,75
same,"Plant response rating (scale of 0 to 100), Velvetleaf",[8],0
same,"Plant response rating, Velvetleaf",[8]; 62 g ai/ha,30
same,"Plant response rating, Velvetleaf",[8]; 125 g ai/ha,65
same,"Plant response rating, Velvetleaf",[8]; 250 g ai/ha,55
same,"Plant response rating (scale of 0 to 100), Wheat",[9],0
same,"Plant response rating, Wheat",[9]; 62 g ai/ha,65
same,"Plant response rating, Wheat",[9]; 125 g ai/ha,80
same,"Plant response rating, Wheat",[9]; 250 g ai/ha,85
same,Plant response rating: Monochoria,[10]; 32 g ai/ha,65
same,Plant response rating: Monochoria,[10]; 64 g ai/ha,98
same,Plant response rating: Monochoria,[10]; 125 g ai/ha,100
same,Plant response rating: Monochoria,[10]; 250 g ai/ha,100
same,Plant response rating: Barnyardgrass,[11]; 32 g ai/ha,90
same,Plant response rating: Barnyardgrass,[11]; 64 g ai/ha,100
same,Plant response rating: Barnyardgrass,[11]; 125 g ai/ha,100
same,Plant response rating: Barnyardgrass,[11]; 250 g ai/ha,100
same,"Plant response rating: Sprangletop, Brdd.",[12]; 32 g ai/ha,85
same,"Plant response rating: Sprangletop, Brdd.",[12]; 64 g ai/ha,85
same,"Plant response rating: Sprangletop, Brdd.",[12]; 125 g ai/ha,95
same,"Plant response rating: Sprangletop, Brdd.",[12]; 250 g ai/ha,98
same,"Plant response rating: Watergrass, Late",[13]; 32 g ai/ha,100
same,"Plant response rating: Watergrass, Late",[13]; 64 g ai/ha,100
same,"Plant response rating: Watergrass, Late",[13]; 125 g ai/ha,100
same,"Plant response rating: Watergrass, Late",[13]; 250 g ai/ha,100
same,"Plant response rating: Flatsedge, Rice",[14]; 32 g ai/ha,0
same,"Plant response rating: Flatsedge, Rice",[14]; 64 g ai/ha,0
same,"Plant response rating: Flatsedge, Rice",[14]; 125 g ai/ha,0
same,"Plant response rating: Flatsedge, Rice",[14]; 250 g ai/ha,0
same,"Plant response rating: Sedge, Umbrella",[15]; 32 g ai/ha,0
same,"Plant response rating: Sedge, Umbrella",[15]; 64 g ai/ha,0
same,"Plant response rating: Sedge, Umbrella",[15]; 125 g ai/ha,0
same,"Plant response rating: Sedge, Umbrella",[15]; 250 g ai/ha,0
same,"Plant response rating: Rice, Water Seeded",[16]; 32 g ai/ha,0
same,"Plant response rating: Rice, Water Seed.",[16]; 64 g ai/ha,40
same,"Plant response rating: Rice, Water Seed.",[16]; 125 g ai/ha,50
same,"Plant response rating: Rice, Water Seeded",[16]; 250 g ai/ha,75
"CN1C[C@H](c2ccc(C(F)(F)F)cc2)[C@@H](C(=O)Nc2ccccc2F)C1=O [Compound 622, (3S,4S)—N-(2-fluorophenyl)-1-methyl-2-oxo-4-[4-(trifluoromethyl)phenyl]-3-pyrrolidinecarboxamide]","Plant response rating (scale of 0 to 100), Barnyardgrass",[1],90
same,"Plant response rating, Barnyardgrass",[1]; 62 g ai/ha,95
same,"Plant response rating, Barnyardgrass",[1]; 125 g ai/ha,90
same,"Plant response rating, Barnyardgrass",[1]; 250 g ai/ha,95
same,"Plant response rating (scale of 0 to 100), Crabgrass, Large",[2],100
same,"Plant response rating, Crabgrass, Large",[2]; 62 g ai/ha,95
same,"Plant response rating, Crabgrass, Large",[2]; 125 g ai/ha,100
same,"Plant response rating, Crabgrass, Large",[2]; 250 g ai/ha,100
same,"Plant response rating (scale of 0 to 100), Foxtail, Giant",[3],90
same,"Plant response rating, Foxtail, Giant",[3]; 62 g ai/ha,90
same,"Plant response rating, Foxtail, Giant",[3]; 125 g ai/ha,95
same,"Plant response rating, Foxtail, Giant",[3]; 250 g ai/ha,95
same,"Plant response rating (scale of 0 to 100), Morningglory",[4],0
same,"Plant response rating, Morningglory",[4]; 62 g ai/ha,0
same,"Plant response rating, Morningglory",[4]; 125 g ai/ha,25
same,"Plant response rating, Morningglory",[4]; 250 g ai/ha,20
same,"Plant response rating (scale of 0 to 100), Nutsedge, Yellow",[5],0
same,"Plant response rating, Nutsedge, Yellow",[5]; 62 g ai/ha,0
same,"Plant response rating, Nutsedge, Yellow",[5]; 125 g ai/ha,0
same,"Plant response rating, Nutsedge, Yellow",[5]; 250 g ai/ha,0
same,"Plant response rating (scale of 0 to 100), Oilseed Rape",[6],60
same,"Plant response rating, Oilseed Rape",[6]; 62 g ai/ha,85
same,"Plant response rating, Oilseed Rape",[6]; 125 g ai/ha,85
same,"Plant response rating, Oilseed Rape",[6]; 250 g ai/ha,85
same,"Plant response rating (scale of 0 to 100), Pigweed",[7],75
same,"Plant response rating, Pigweed",[7]; 62 g ai/ha,85
same,"Plant response rating, Pigweed",[7]; 125 g ai/ha,85
same,"Plant response rating, Pigweed",[7]; 250 g ai/ha,90
same,"Plant response rating (scale of 0 to 100), Velvetleaf",[8],0
same,"Plant response rating, Velvetleaf",[8]; 62 g ai/ha,25
same,"Plant response rating, Velvetleaf",[8]; 125 g ai/ha,70
same,"Plant response rating, Velvetleaf",[8]; 250 g ai/ha,70
same,"Plant response rating (scale of 0 to 100), Wheat",[9],30
same,"Plant response rating, Wheat",[9]; 62 g ai/ha,40
same,"Plant response rating, Wheat",[9]; 125 g ai/ha,70
same,"Plant response rating, Wheat",[9]; 250 g ai/ha,80
